Results as given in PMC4314066, “Houttuynia cordata Targets the Beginning Stage of Herpes Simplex Virus Infection” (PLoS ONE, 2015).
Values after ≈ are worked out from the molar mass of the structure shown. Where two headings read alike, the source gives them in different places.

Assays:
[1] = system: Acyclovir-resistant HSV-1 (HSV-AR); test: microbe, parasite or virus in culture; format: cell-based; settings: Human alphaherpesvirus 1, Vero, read-out: EC50 HSV-AR
Description: (§1) African green monkey kidney cells (Vero, ATCC CCL-81) and human epithelial carcinoma cells (HEp-2, ATCC CCL-23 and A549, ATCC CCL-185) were maintained in Dulbecco’s modified Eagle’s medium (DMEM), modified Eagle’s medium (MEM) and RPMI-1640 medium, respectively, supplemented with 10% fetal bovine serum (Gibco), 100 units/mL penicillin, and 100 μg/mL streptomycin. All the cell lines were cultured at 37°C with 5% CO2. HSV-1F (ATCC VR-733) and HSV-2G (ATCC VR-734) stocks were propagated in Vero cells, aliquoted and stored at -80°C. ACV-resistant HSV-1 was generated in our previous study.
(§2) 1X 10^6 Vero cells were seeded onto 6-well culture plates for 24 hours and infected with 100 pfu/well virus at 37°C for 1 hour. […] After 3 days, the cells were fixed with 3.7% formaldehyde and stained with crystal violet. The plaques were counted.

HSV-1 [2] = test: Plaque reduction assay; format: cell-based; settings: for EC50: read-out: EC50 HSV-1
Description: as §1, §2

HSV-2 = test: Plaque reduction assay; format: cell-based; settings: for EC50: read-out: EC50 HSV-2
Description: as §1, §2

MTT cytotoxicity assay = format: cell-based, African green monkey; settings: African green monkey
Description: (§3) All the cell lines were cultured at 37°C with 5% CO2. […] ACV-resistant HSV-1 was generated in our previous study.
(§4) The cells were washed with PBS, added with 0.1 mg/mL MTT reagent [3-(4,5-dimethylthiazol-2-yl)-2,5-diphenyl tetrazolium bromide; Sigma] and incubated at 37°C for 5 hours. After incubation, MTT reagent was removed and DMSO was added to each well. The absorbance was then determined by ELISA reader (SpectraMAX 340, Molecular Devices) at the wavelength of 550 nm.

Vero cells = test: MTT cytotoxicity assay; format: cell-based, African green monkey; settings: Vero cells, MTT
Description: as §3, §4

NF-κB = NF-κB translocation analysis by Western blot of nuclear fractions; format: cell-based; settings: HSV-1 infection, nuclear fraction at 3 h.p.i.
Text: During HSV infection, there are two waves of NF-κB activation. The first-wave of NF-κB activation could enhance ICP0 transcription via binding onto viral ICP0 promoter while the second-wave of NF-κB activation could prevent host cells from apoptosis. […] The nuclear fractions were extracted and applied to NF-κB translocation analysis by Western blot assay. […] After transfection, luciferase activity of pGL-ICP0 Wt transfected cells increased up to 3,000-fold compared with the vector control, pGL, in HSV-1 infection. […] Although it is well known the expression of ICP0 is regulated by NF-κB, the exact NF-κB binding site on ICP0 promoter is not identified yet. […] Only one NF-κB binding site was predicted within the HSV-1 ICP0 promoter. To determine whether the HCWEs-mediated ICP0 suppression was NF-κB-dependent, the predicted NF-κB binding site within pGL-ICP0 Wt was mutated by PCR-based mutagenesis and the resulting plasmid was named as pGL-ICP0 Mut. […] The results implied that HSV-1 ICP0 promoter activity was at least partly regulated by NF-κB.

HSV-1 [3] = test: Virus pre-treatment assay (plaque assay); format: cell-based; settings: 100 pfu HSV-1 pretreated, Vero cells, Fig. 9A
Description: After incubation, HCWEs-pretreated cells were washed with PBS and then infected with 100 pfu HSV. The inhibitory activities were analyzed by plaque assay. […] After 3 hours of incubation, 1X10^6 Vero cells were infected with HCWEs-pretreated virus and then analyzed by plaque assay.

HSV-1 [4] = test: Virus binding to Vero cells, Western blot of cell-bound virus gD; format: cell-based; settings: 1 m.o.i., 4°C
[5] = Human alphaherpesvirus 1, Vero cells
[6] = Human alphaherpesvirus 2, Vero cells
[7] = Vero cells, MTT, read-out: CC50

Row | SMILES | EC50 (HSV-1 [2]; [5]) | EC50 (HSV-2; [6]) | CC50 at 3 days (MTT cytotoxicity assay; [7]) | inhibition of HSV-1 by pretreatment of virus with pure compound (HSV-1 [3]) | SI HSV-1 (CC50/EC50) (HSV-1 [2]) | cell binding ability of HSV-1 (Western blot) (HSV-1 [4]) | further results
1 | Nc1nc2c(ncn2COCCO)c(=O)[nH]1 [Acyclovir, acyclovir, reference compound] | 0.74 µg/mL (≈ 3.29 µM) | 0.82 µg/mL (≈ 3.64 µM) | > 450 µg/mL | – | – | – | EC50 [1]: 14 µg/mL (≈ 62.3 µM)
2 | O=C(/C=C/c1ccc(O)c(O)c1)O[C@@H]1C[C@](O)(C(=O)O)C[C@@H](O)[C@H]1O [Chlorogenic acid, chlorogenic acid] | > 1240 µg/mL | > 1240 µg/mL | 1240 µg/mL (≈ 3510 µM) | – | – | – | –
3 | O=c1c(O[C@@H]2O[C@H](CO)[C@H](O)[C@H](O)[C@H]2O)c(-c2ccc(O)c(O)c2)oc2cc(O)cc(O)c12 [Hyperin, hyperin] | – | – | – | – | – | – | EC50 HSV-1 (HSV-1 [2]; Vero cells): >500 µg/mL; EC50 HSV-2 (HSV-2; Vero cells): >500 µg/mL; CC50 (Vero cells): >500 µg/mL
4 | O=c1c(O[C@@H]2O[C@H](CO)[C@@H](O)[C@H](O)[C@H]2O)c(-c2ccc(O)c(O)c2)oc2cc(O)cc(O)c12 [Isoquercitrin, isoquercitrin] | 0.42 µg/mL (≈ 0.904 µM) | 0.39 µg/mL (≈ 0.84 µM) | > 200 µg/mL | not | >476.2 | not | HSV-induced NF-κB translocation / activation (NF-κB): inhibited NF-κB activation
5 | O=c1c(O)c(-c2ccc(O)c(O)c2)oc2cc(O)cc(O)c12 [Quercetin, quercetin] | 52.9 µg/mL (≈ 175 µM) | 70 µg/mL (≈ 232 µM) | 486 µg/mL (≈ 1610 µM) | targeted virus particles directly and inhibited viral entry | 9.18 | inhibited the binding of HSV-1 onto host cells | HSV-induced NF-κB translocation / activation (NF-κB): inhibited NF-κB activation; SI HSV-2 (CC50/EC50) (HSV-2): 6.94
6 | C[C@@H]1O[C@@H](Oc2c(-c3ccc(O)c(O)c3)oc3cc(O)cc(O)c3c2=O)[C@H](O)[C@H](O)[C@H]1O [Quercitrin, quercitrin] | – | – | 142 µg/mL (≈ 317 µM) | – | – | – | EC50 (HSV-1 [2]; Human alphaherpesvirus 1, Vero): > 142 µg/mL; EC50 (HSV-2; Human alphaherpesvirus 2, Vero): > 142 µg/mL
7 | C[C@@H]1O[C@@H](OC[C@H]2O[C@@H](Oc3c(-c4ccc(O)c(O)c4)oc4cc(O)cc(O)c4c3=O)[C@H](O)[C@@H](O)[C@@H]2O)[C@H](O)[C@H](O)[C@H]1O [Rutin, rutin] | 188 µg/mL (≈ 307 µM) | 169 µg/mL (≈ 278 µM) | – | not | 3.745 | not | SI HSV-2 (CC50/EC50) (HSV-2): 4.146; CC50 at 3 days (MTT cytotoxicity assay): 702 µg/mL (≈ 1150 µM)
